Measurements: US20260092071A1, “COMPOUNDS AND COMPOSITIONS AS SMARCA2/4 DEGRADERS AND USES THEREOF” (REGENTS OF THE UNIVERSITY OF MICHIGAN, priority 2022, published 2026)
Like-named read-outs stand apart in the source and are kept apart here.

Tests used:
SMARCA4 = SMARCA4 (Homo sapiens, UniProt P51532); test: HiBiT assay for protein degradation, Hela SMARCA4-HiBiT cells (A series); type: cell-based; design: fuse HiBiT to the carboxy terminus of SMARCA2 (Promega CS302365) or SMARCA4 (Promega CS3023225); host or cells: HeLa (CRISPR/Cas9 HiBiT knock-in); conditions: for DC50: read-out: SMARC A4 Hela HiBit DC50; for Dmax: read-out: SMARC A4 Hela HiBit Dmax(%)
Outline: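 SMARCA4 degradation was measured in HeLa cells in which HiBiT had been knocked into the SMARCA4 carboxy terminus via CRISPR/Cas9 (Promega CS3023225). Cells were maintained in DMEM with FBS and penicillin-streptomycin. At the end of treatment, SMARCA4 levels were read by lytic HiBiT luminescence (Nano-Glo®, Promega N3050), and data were analyzed with GraphPad Prism.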

SMARCA2 = SMARCA2 (Homo sapiens, UniProt P51531); test: HiBiT assay for protein degradation, Hela SMARCA2-HiBiT cells (A series); type: cell-based; design: Hela cells were genetically modified via CRISPR/Cas9 to fuse HiBiT to the carboxy terminus of SMARCA2; host or cells: HeLa (CRISPR/Cas9 HiBiT knock-in)
Outline: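 SMARCA2 degradation was measured in HeLa cells whose endogenous SMARCA2 carries a carboxy-terminal HiBiT tag introduced by CRISPR/Cas9 (Promega CS302365). Cells were maintained in DMEM with FBS and penicillin-streptomycin. SMARCA2 levels were read at the end of the experiment by Nano-Glo® HiBiT lytic luminescence (Promega N3050) and analyzed in GraphPad Prism.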

[1] = Hela SMARCA4-HiBiT cells, 24 hours treatment
[2] = Hela SMARCA2-HiBiT cells, 24 hours treatment; read-out: SMARC A2 Hela HiBit DC50
[3] = HeLa, read-out: SMARC A2 Hela HiBit Dmax (%)
[4] = Hela SMARCA2-HiBiT cells, 24 hours treatment; read-out: SMARC A2 Hela HiBit Dmax (%)

Chain of SMARCA4 (P51532 whole entry): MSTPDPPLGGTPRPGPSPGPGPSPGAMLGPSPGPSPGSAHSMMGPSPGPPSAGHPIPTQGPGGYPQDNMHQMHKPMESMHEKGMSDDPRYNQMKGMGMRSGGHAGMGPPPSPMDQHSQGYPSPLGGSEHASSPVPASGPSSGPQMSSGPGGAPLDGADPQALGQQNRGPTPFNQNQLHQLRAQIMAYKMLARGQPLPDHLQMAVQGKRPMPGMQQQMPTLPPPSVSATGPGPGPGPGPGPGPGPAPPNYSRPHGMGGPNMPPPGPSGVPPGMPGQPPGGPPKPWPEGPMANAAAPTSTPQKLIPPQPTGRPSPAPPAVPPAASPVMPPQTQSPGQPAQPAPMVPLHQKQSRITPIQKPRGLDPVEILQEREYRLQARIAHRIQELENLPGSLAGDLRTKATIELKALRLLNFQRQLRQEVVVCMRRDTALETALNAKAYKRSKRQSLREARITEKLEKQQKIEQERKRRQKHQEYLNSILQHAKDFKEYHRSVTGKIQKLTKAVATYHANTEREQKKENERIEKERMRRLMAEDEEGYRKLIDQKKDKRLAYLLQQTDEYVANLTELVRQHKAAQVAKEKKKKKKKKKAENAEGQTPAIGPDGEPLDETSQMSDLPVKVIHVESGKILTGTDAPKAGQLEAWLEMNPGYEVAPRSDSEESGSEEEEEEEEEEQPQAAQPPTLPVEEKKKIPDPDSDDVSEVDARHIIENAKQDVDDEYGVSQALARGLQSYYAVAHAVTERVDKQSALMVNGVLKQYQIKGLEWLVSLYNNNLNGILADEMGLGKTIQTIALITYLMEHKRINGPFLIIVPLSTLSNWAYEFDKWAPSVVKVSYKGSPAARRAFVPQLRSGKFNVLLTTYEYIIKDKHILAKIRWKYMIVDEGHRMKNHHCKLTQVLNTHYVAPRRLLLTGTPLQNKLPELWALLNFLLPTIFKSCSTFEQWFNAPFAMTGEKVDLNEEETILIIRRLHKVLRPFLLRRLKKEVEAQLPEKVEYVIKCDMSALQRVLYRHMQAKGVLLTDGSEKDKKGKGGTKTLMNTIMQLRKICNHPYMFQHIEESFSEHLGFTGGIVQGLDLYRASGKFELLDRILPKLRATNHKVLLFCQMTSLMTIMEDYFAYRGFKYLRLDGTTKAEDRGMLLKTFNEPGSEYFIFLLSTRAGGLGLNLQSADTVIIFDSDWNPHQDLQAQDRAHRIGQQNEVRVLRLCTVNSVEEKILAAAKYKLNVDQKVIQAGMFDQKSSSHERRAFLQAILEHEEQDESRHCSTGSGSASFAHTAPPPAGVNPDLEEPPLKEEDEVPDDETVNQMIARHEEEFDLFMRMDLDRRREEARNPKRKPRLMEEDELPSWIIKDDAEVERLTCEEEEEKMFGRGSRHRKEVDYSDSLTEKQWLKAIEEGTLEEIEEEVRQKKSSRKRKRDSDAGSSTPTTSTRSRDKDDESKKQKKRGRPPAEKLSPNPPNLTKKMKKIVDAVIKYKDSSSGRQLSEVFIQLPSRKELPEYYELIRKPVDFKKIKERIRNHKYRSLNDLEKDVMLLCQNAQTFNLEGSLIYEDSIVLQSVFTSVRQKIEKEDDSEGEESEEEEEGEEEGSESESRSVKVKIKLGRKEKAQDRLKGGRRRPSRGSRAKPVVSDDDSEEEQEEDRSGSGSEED
Chain of SMARCA2 (P51531 whole entry): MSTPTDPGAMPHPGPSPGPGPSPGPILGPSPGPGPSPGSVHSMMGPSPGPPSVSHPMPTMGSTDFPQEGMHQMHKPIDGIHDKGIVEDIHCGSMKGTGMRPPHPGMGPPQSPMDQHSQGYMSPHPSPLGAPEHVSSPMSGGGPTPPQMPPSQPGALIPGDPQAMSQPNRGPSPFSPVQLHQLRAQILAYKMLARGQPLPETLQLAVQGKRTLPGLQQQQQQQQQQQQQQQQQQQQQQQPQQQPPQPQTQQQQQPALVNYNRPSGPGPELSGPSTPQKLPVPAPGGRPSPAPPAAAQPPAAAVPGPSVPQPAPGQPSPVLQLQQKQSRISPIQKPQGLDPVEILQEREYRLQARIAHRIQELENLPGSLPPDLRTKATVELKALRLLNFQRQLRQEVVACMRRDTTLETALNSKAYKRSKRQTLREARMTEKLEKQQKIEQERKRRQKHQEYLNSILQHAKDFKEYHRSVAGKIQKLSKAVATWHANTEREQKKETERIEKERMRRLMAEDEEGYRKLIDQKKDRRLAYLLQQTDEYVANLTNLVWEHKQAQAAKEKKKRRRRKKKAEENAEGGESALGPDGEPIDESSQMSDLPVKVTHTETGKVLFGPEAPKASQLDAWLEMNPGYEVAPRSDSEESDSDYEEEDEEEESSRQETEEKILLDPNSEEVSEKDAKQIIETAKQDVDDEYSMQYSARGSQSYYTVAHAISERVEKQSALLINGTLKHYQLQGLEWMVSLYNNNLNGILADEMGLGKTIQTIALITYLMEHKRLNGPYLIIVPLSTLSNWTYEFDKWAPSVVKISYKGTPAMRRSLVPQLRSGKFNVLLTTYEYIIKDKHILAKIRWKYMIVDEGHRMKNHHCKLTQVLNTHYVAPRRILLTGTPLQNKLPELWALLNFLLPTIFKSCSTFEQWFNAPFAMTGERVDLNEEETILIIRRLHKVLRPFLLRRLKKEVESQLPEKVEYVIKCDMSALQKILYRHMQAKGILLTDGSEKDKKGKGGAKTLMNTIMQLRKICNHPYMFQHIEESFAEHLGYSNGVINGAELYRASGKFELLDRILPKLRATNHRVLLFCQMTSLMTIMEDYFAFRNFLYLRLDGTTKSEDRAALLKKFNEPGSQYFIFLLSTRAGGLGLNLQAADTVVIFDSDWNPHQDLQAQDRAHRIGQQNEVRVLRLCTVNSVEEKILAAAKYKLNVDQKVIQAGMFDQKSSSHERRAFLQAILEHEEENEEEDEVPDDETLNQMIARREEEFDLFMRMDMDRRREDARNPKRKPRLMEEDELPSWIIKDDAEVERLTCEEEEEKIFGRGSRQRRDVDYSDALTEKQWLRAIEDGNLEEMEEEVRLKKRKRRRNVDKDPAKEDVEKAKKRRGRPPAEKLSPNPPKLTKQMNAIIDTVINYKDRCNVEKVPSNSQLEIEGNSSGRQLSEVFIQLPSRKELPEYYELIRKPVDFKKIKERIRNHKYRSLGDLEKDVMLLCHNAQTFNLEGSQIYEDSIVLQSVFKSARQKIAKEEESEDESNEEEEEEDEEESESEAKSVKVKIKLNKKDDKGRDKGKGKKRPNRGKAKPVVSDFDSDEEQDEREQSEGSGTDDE

Row | DC50 (SMARCA4; [1]) [nM] | DC50 (SMARCA2; [2]) [nM] | Dmax (SMARCA4; [1]) [%] | Dmax (SMARCA2; [4]) [%] | SMILES | also measured
1 | – | – | – | – | Cc1ncsc1-c1ccc([C@H](C)NC(=O)[C@@H]2C[C@@H](O)CN2C(=O)[C@@H](NC(=O)[C@H]2CC[C@H](CN3CCC(c4ccc5c(n4)-n4c(nc(=O)c6c(Br)cccc64)C54CCCCC4)CC3)CC2)C(C)(C)C)cc1 [Compound A51, (2S,4R)-1-((S)-2-((1r,4S)-4-((4-(4′-bromo-5′-oxo-5′H-spiro[cyclohexane-1,7′-pyrido[3′,2′: 4,5]pyrrolo[1,2-a]quinazolin]-10′-yl)piperidin-1-yl)methyl)cyclohexane-1-carboxamido)-3,3-dimethylbutanoyl)-4-hydroxy-N—((S)-1-(4-(4-methylthiazol-5-yl)phenyl)ethyl)pyrrolidine-2-carboxamide] | Dmax (SMARCA4; HeLa): < 50%; SMARC A4 Hela HiBit DC50(nM) (SMARCA4; [1]): No Fit; Dmax (SMARCA2; [3]): 50 to 69%; DC50 (SMARCA2; read-out: SMARC A2 Hela HiBit DC50; Hela SMARCA2-HiBiT cells, 24 hours treatment): 501 to 1000 nM
2 | < 100 | < 100 | > 90 | > 90 | Cc1ncsc1-c1ccc([C@H](C)NC(=O)[C@@H]2C[C@@H](O)CN2C(=O)[C@@H](n2cc(CN3CCC(c4ccc5c(c4)C4(CCCCC4)c4nc(=O)c6c(Br)cccc6n4-5)CC3)nn2)C(C)(C)C)cc1 [Compound A53, (2S,4R)-1-((S)-2-(4-((4-(4′-bromo-5′-oxo-5′H-spiro[cyclohexane-1,7′-indolo[1,2-a]quinazolin]-9′-yl)piperidin-1-yl)methyl)-1H-1,2,3-triazol-1-yl)-3,3-dimethylbutanoyl)-4-hydroxy-N—((S)-1-(4-(4-methylthiazol-5-yl)phenyl)ethyl)pyrrolidine-2-carboxamide] | –
3 | < 100 | < 100 | > 90 | > 90 | Cc1ncsc1-c1ccc([C@H](C)NC(=O)[C@@H]2C[C@@H](O)CN2C(=O)[C@@H](n2cc(CCN3CCC(c4ccc5c(c4)C4(CCCCC4)c4nc(=O)c6c(Br)cccc6n4-5)CC3)nn2)C(C)(C)C)cc1 [Compound A54, (2S,4R)-1-((S)-2-(4-(2-(4-(4′-bromo-5′-oxo-5′H-spiro[cyclohexane-1,7′-indolo[1,2-a]quinazolin]-9′-yl)piperidin-1-yl)ethyl)-1H-1,2,3-triazol-1-yl)-3,3-dimethylbutanoyl)-4-hydroxy-N—((S)-1-(4-(4-methylthiazol-5-yl)phenyl)ethyl)pyrrolidine-2-carboxamide] | –
4 | < 100 | < 100 | > 90 | > 90 | Cc1ncsc1-c1ccc([C@H](C)NC(=O)[C@@H]2C[C@@H](O)CN2C(=O)[C@@H](n2cc(CCCN3CCC(c4ccc5c(c4)C4(CCCCC4)c4nc(=O)c6c(Br)cccc6n4-5)CC3)nn2)C(C)(C)C)cc1 [Compound A55, (2S,4R)-1-((S)-2-(4-(3-(4-(4′-bromo-5′-oxo-5′H-spiro[cyclohexane-1,7′-indolo[1,2-a]quinazolin]-9′-yl)piperidin-1-yl)propyl)-1H-1,2,3-triazol-1-yl)-3,3-dimethylbutanoyl)-4-hydroxy-N—((S)-1-(4-(4-methylthiazol-5-yl)phenyl)ethyl)pyrrolidine-2-carboxamide] | –
5 | < 100 | < 100 | > 90 | > 90 | Cc1ncsc1-c1ccc([C@H](C)NC(=O)[C@@H]2C[C@@H](O)CN2C(=O)[C@@H](n2cc(CCCCN3CCC(c4ccc5c(c4)C4(CCCCC4)c4nc(=O)c6c(Br)cccc6n4-5)CC3)nn2)C(C)(C)C)cc1 [Compound A56, (2S,4R)-1-((S)-2-(4-(4-(4-(4′-bromo-5′-oxo-5′H-spiro[cyclohexane-1,7′-indolo[1,2-a]quinazolin]-9′-yl)piperidin-1-yl)butyl)-1H-1,2,3-triazol-1-yl)-3,3-dimethylbutanoyl)-4-hydroxy-N—((S)-1-(4-(4-methylthiazol-5-yl)phenyl)ethyl)pyrrolidine-2-carboxamide] | –
6 | < 100 | < 100 | > 90 | > 90 | Cc1ncsc1-c1ccc([C@H](C)NC(=O)[C@@H]2C[C@@H](O)CN2C(=O)[C@@H](n2cc(CCCCCN3CCC(c4ccc5c(c4)C4(CCCCC4)c4nc(=O)c6c(Br)cccc6n4-5)CC3)nn2)C(C)(C)C)cc1 [Compound A57, (2S,4R)-1-((S)-2-(4-(5-(4-(4′-bromo-5′-oxo-5′H-spiro[cyclohexane-1,7′-indolo[1,2-a]quinazolin]-9′-yl)piperidin-1-yl)pentyl)-1H-1,2,3-triazol-1-yl)-3,3-dimethylbutanoyl)-4-hydroxy-N—((S)-1-(4-(4-methylthiazol-5-yl)phenyl)ethyl)pyrrolidine-2-carboxamide] | –
7 | < 100 | < 100 | > 90 | > 90 | Cc1ncsc1-c1ccc([C@H](C)NC(=O)[C@@H]2C[C@@H](O)CN2C(=O)[C@@H](n2cc(CCCCCCN3CCC(c4ccc5c(c4)C4(CCCCC4)c4nc(=O)c6c(Br)cccc6n4-5)CC3)nn2)C(C)(C)C)cc1 [Compound A58, (2S,4R)-1-((S)-2-(4-(6-(4-(4′-bromo-5′-oxo-5′H-spiro[cyclohexane-1,7′-indolo[1,2-a]quinazolin]-9′-yl)piperidin-1-yl)hexyl)-1H-1,2,3-triazol-1-yl)-3,3-dimethylbutanoyl)-4-hydroxy-N—((S)-1-(4-(4-methylthiazol-5-yl)phenyl)ethyl)pyrrolidine-2-carboxamide] | –
8 | > 1000 | < 100 | < 50 | 70 to 90 | Cc1ncsc1-c1ccc([C@@H](C)NC(=O)[C@@H]2C[C@@H](O)CN2C(=O)C(c2cc(N3CCC(CN4CCC(c5ccc6c(c5)C5(CCCCC5)c5nc(=O)c7c(Br)cccc7n5-6)CC4)CC3)no2)C(C)C)cc1 (stereo partly drawn) [Compound A59, (2S,4R)-1-(2-(3-(4-((4-(4′-bromo-5′-oxo-5′H-spiro[cyclohexane-1,7′-indolo[1,2-a]quinazolin]-9′-yl)piperidin-1-yl)methyl)piperidin-1-yl)isoxazol-5-yl)-3-methylbutanoyl)-4-hydroxy-N—((R)-1-(4-(4-methylthiazol-5-yl)phenyl)ethyl)pyrrolidine-2-carboxamide] | –
9 | – | – | – | – | Cc1ncsc1-c1ccc([C@H](C)NC(=O)[C@@H]2C[C@@H](O)CN2C(=O)[C@@H](n2cc([C@H]3CC[C@H](CN4CCC(c5ccc6c(c5)C5(CCCCC5)c5nc(=O)c7c(Br)cccc7n5-6)CC4)CC3)nn2)C(C)(C)C)cc1 [Compound A60, (2S,4R)-1-((S)-2-(4-((1r,4S)-4-((4-(4′-bromo-5′-oxo-5′H-spiro[cyclohexane-1,7′-indolo[1,2-a]quinazolin]-9′-yl)piperidin-1-yl)methyl)cyclohexyl)-1H-1,2,3-triazol-1-yl)-3,3-dimethylbutanoyl)-4-hydroxy-N—((S)-1-(4-(4-methylthiazol-5-yl)phenyl)ethyl)pyrrolidine-2-carboxamide] | DC50 (SMARCA4): < 100 nM; SMARC A2 Hela HiBit Dmax (%) (SMARCA2): A (key: A (>90% degradation); B (70-90% degradation); C (50-69% degradation); D (<50% degradation)); DC50 (SMARCA2; read-out: SMARC A2 Hela HiBit DC50): < 100 nM

Row | SMILES | DC50 (SMARCA4; [1]) [nM] | DC50 (SMARCA2; [2]) [nM] | Dmax (SMARCA4; [1]) [%] | Dmax (SMARCA2; [4]) [%] | also measured
10 | Cc1ncsc1-c1ccc([C@H](C)NC(=O)[C@@H]2C[C@@H](O)CN2C(=O)[C@@H](n2cc([C@H]3CC[C@H](CN4CCC(c5ccc6c(c5)-n5c(nc(=O)c7c(Br)cccc75)C65CCCCC5)CC4)CC3)nn2)C(C)(C)C)cc1 [Compound A49, (2S,4R)-1-((S)-2-(4-((1r,4S)-4-((4-(4′-bromo-5′-oxo-5′H-spiro[cyclohexane-1,7′-indolo[1,2-a]quinazolin]-10′-yl)piperidin-1-yl)methyl)cyclohexyl)-1H-1,2,3-triazol-1-yl)-3,3-dimethylbutanoyl)-4-hydroxy-N—((S)-1-(4-(4-methylthiazol-5-yl)phenyl)ethyl)pyrrolidine-2-carboxamide] | 100 to 500 | < 100 | – | – | SMARC A4 Hela HiBit Dmax(%) (SMARCA4; [1]): B (B (70-90% degradation)); SMARC A2 Hela HiBit Dmax (%) (SMARCA2; Hela SMARCA2-HiBiT cells, 24 hours treatment): A (A (>90% degradation))
11 | Cc1ncsc1-c1ccc([C@H](C)NC(=O)[C@@H]2C[C@@H](O)CN2C(=O)[C@@H](n2cc([C@H]3CC[C@H](CN4CCC(c5ccc6c(n5)-n5c(nc(=O)c7c(Br)cccc75)C65CCCCC5)CC4)CC3)nn2)C(C)(C)C)cc1 [Compound A50, (2S,4R)-1-((S)-2-(4-((1r,4S)-4-((4-(4′-bromo-5′-oxo-5′H-spiro[cyclohexane-1,7′-pyrido[3′,2′: 4,5]pyrrolo[1,2-a]quinazolin]-10′-yl)piperidin-1-yl)methyl)cyclohexyl)-1H-1,2,3-triazol-1-yl)-3,3-dimethylbutanoyl)-4-hydroxy-N—((S)-1-(4-(4-methylthiazol-5-yl)phenyl)ethyl)pyrrolidine-2-carboxamide] | – | < 100 | – | – | SMARC A4 Hela HiBit DC50(nM) (SMARCA4; [1]): No Fit; Dmax (SMARCA2; [3]): > 90%
